Where “and” joins values, the source holds several entries; their conditions need not be identical. Equal values may be shown once.
Key:
[1] = system: carrageenan-induced rat paw edema; assay: Carrageenan-induced rat paw edema assay; assay type: in vivo; settings: for Edema thickness (mm) ± SEM: n = 4
Method: Pretreatment of rats with compounds 7a–k, 8a–c, and 9a–c before injection with carrageenan in rat paw which induces inflammation and then the percentage of paw edema reduction was measured after certain hours according to previously reported procedures.

Ovine COX-1 = biological target: T1, Ovine COX-1 (Ovis aries, UniProt P05979); assay: In vitro COX inhibition colorimetric assay; assay type: biochemical
T1 construct: purchased Cayman Chemical, Ann Arbor, MI, USA 760111
T1 sequence (P05979 25-600): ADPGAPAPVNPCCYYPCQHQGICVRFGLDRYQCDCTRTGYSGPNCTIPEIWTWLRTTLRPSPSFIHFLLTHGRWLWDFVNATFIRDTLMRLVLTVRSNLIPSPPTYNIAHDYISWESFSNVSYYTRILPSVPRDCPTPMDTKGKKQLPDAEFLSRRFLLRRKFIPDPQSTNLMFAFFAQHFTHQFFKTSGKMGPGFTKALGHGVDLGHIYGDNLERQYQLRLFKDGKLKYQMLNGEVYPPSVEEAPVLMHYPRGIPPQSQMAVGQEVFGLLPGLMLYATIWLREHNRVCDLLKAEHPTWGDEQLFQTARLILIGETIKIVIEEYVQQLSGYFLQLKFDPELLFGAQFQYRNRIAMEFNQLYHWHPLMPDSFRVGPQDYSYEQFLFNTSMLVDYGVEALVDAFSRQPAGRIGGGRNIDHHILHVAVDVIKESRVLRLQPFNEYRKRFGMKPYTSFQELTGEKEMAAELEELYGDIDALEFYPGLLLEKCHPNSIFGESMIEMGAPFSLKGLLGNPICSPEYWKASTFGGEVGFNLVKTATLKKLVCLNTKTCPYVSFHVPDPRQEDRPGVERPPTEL

[2] = system: Pseudomonas aeruginosa (ATCC 27853); assay: Antimicrobial screening (CO-ADD), growth inhibition at single concentration; assay type: cell-based; settings: ATCC27853, at 32 µg/mL concentration, read-out: growth inhibition % Pa (P. aeruginosa)
Method: (§1) The antimicrobial study was performed by CO-ADD (The Community for Antimicrobial Drug Discovery), funded by the Wellcome Trust (UK) and The University of Queensland (Australia). Evaluation of all synthesized compounds for their antimicrobial activities was done against five pathogenic bacteria, methicillin-resistant Staphylococcus aureus (ATCC 43300) as Gram-positive bacteria, Escherichia coli (ATCC 25922), Klebsiella pneumonia (ATCC 700603), Acinetobacter baumannii (ATCC 19606) and Pseudomonas aeruginosa (ATCC 27853) as Gram-negative bacteria and antifungal activity against two pathogenic fungal strains Candida albicans (ATCC 90028) and Cryptococcus neoformans var. grubii (H99; ATCC 208821) (Table 1).

[3] = system: Acinetobacter baumannii (ATCC 19606); assay: as above; assay type: cell-based; settings: ATCC19606, at 32 µg/mL concentration, read-out: growth inhibition % Ab (A. baumannii)
Method: as §1

[4] = system: methicillin-resistant Staphylococcus aureus (ATCC 43300); assay: as above; assay type: cell-based; settings: ATCC 43300 / MRSA, at 32 µg/mL concentration, read-out: growth inhibition % Sa (MRSA)
Method: as §1

[5] = system: Candida albicans (ATCC 90028); assay: Antifungal screening (CO-ADD), growth inhibition at single concentration; assay type: cell-based; settings: ATCC90028, at 32 µg/mL concentration, read-out: growth inhibition % Ca (C. albicans)
Method: as §1

human recombinant COX-2 = assay: In vitro COX inhibition colorimetric assay; assay type: biochemical; settings: COX-1 IC50/COX-2 IC50
[6] = system: Klebsiella pneumonia (ATCC 700603); assay: Antimicrobial screening (CO-ADD), growth inhibition at single concentration; assay type: cell-based; settings: Klebsiella pneumoniae, ATCC700603; at 32 µg/mL concentration; read-out: growth inhibition % Kp (K. pneumoniae)
Method: as §1

Row | Structure (SMILES) | IC50 (Ovine COX-1) [µM] | melting point [°C] | Edema inhibition % ([1]; 1 h) [%] | Edema thickness (mm) ± SEM ([1]; 1 h) [mm] | Edema inhibition % ([1]; 3 h) [%] | Edema thickness (mm) ± SEM ([1]; 3 h) [mm] | Edema inhibition % ([1]; 6 h) [%] | Edema thickness (mm) ± SEM ([1]; 6 h) [mm] | inhibition at 32 µg/mL [2] [%] | inhibition at 32 µg/mL [3] [%] | inhibition at 32 µg/mL [4] [%] | inhibition at 32 µg/mL [5] [%] | Selectivity index (SI) (human recombinant COX-2) | inhibition at 32 µg/mL [6] [%]
1 | Cc1ccc(-c2cc(C(F)(F)F)nn2-c2ccc(S(N)(=O)=O)cc2)cc1 [Celecoxib, celecoxib, reference compound] |  |  | 68.9 | 0.810 ± 0.074 | 95.5 | 0.100 ± 0.009 | 94.7 | 0.100 ± 0.005 |  |  |  |  |  | 
2 | CS(=O)(=O)c1ccc(NN=Cc2c(-c3ccc(S(C)(=O)=O)cc3)[nH]c3ccccc23)cc1 [Compound 7b, 2-(4-(Methylsulfonyl)phenyl)-3-((2-(4-(methylsulfonyl)phenyl)hydrazono)methyl)-1H-indole] | 12.4 | 228 to 230 | 76.1 | 0.627 ± 0.045 | 91.2 | 0.196 ± 0.017 | 93.5 | 0.123 ± 0.009 | 3.8 | 35.5 | 25.6 | 9.55 | 124.10 | 
3 | Cc1ccc2[nH]c(-c3ccc(S(C)(=O)=O)cc3)c(/C=N/Nc3ccc(S(C)(=O)=O)cc3)c2c1 [Compound 7d, 5-Methyl-2-(4-(methylsulfonyl)phenyl)-3-((2-(4-(methylsulfonyl)phenyl) hydraz-ono)methyl)-1H-indole] | 10.4 | 262 to 264 | 51.6 | 1.270 ± 0.015 | 77.5 | 0.502 ± 0.044 | 78.6 | 0.405 ± 0.018 |  | 35 | 15.6 | 2.54 | 69.33 | 4.86
4 | Cc1ccc2[nH]c(-c3ccc(S(C)(=O)=O)cc3)c(/C=N/Nc3ccc(S(N)(=O)=O)cc3)c2c1 [Compound 7e, 4-(2-((5-Methyl-2-(4-(methylsulfonyl)phenyl)-1H-indol-3-yl)methylene) hydrazine-yl) benzenesulfonamide] | 9.7 | 186 to 188 | 53.9 | 1.209 ± 0.11 | 71.1 | 0.645 ± 0.01 | 79.9 | 0.381 ± 0.007 |  | 43.6 | 7.58 | 28.7 | 31.29 | 
5 | Cc1ccc2[nH]c(-c3ccc(S(C)(=O)=O)cc3)c(C=NNc3ccc(F)cc3)c2c1 [Compound 7f, 3-((2-(4-Fluorophenyl)hydrazono)methyl)-5-methyl-2-(4-(methylsulfonyl)phenyl)-1H-indole] | 9.73 | 159 to 161 | 60.5 | 1.036 ± 0.009 | 72.7 | 0.609 ± 0.03 | 79.2 | 0.394 ± 0.01 |  | 66.7 | 8.33 | 3.5 | 57.23 | 8.05
6 | CS(=O)(=O)c1ccc(N/N=C/c2c(-c3ccc(S(C)(=O)=O)cc3)[nH]c3ccc(F)cc23)cc1 [Compound 7h, 5-Fluoro-2-(4-(methylsulfonyl)phenyl)-3-((2-(4-(methylsulfonyl)phenyl) hydraz-ono)methyl)-1H-indole] | 12.4 | 187 to 188 | 75.4 | 0.645 ± 0.058 | 89.4 | 0.236 ± 0.008 | 92.7 | 0.138 ± 0.006 | 7.97 | 51.8 | 30.3 | 25.3 | 112.7 and 112.72 | 23.6
7 | CS(=O)(=O)c1ccc(-c2[nH]c3ccc(F)cc3c2C=NNc2ccc(F)cc2)cc1 [Compound 7j, 5-Fluoro-3-((2-(4-fluorophenyl)hydrazono)methyl)-2-(4-(methylsulfonyl)phenyl)-1H-indole] | 10.8 | 200 to 202 | 64.3 | 0.936 ± 0.064 | 78.6 | 0.477 ± 0.027 | 71 | 0.549 ± 0.013 |  | 46.2 | 30.6 | 1.91 | 98.18 | 12.3
8 | COc1ccc2c(c1)c(CC(=O)O)c(C)n2C(=O)c1ccc(Cl)cc1 [Indomethacin, indomethacin, reference compound] |  |  | 70.7 | 0.768 ± 0.050 | 96 | 0.075 ± 0.007 | 96.6 | 0.075 ± 0.004 |  |  |  |  |  | 

Further lines, with some results ahead:

Row | IC50 (Ovine COX-1) [µM] | melting point [°C] | Structure (SMILES) | Edema inhibition % ([1]; 1 h) [%] | Edema thickness (mm) ± SEM ([1]; 1 h) [mm] | Edema inhibition % ([1]; 3 h) [%] | Edema thickness (mm) ± SEM ([1]; 3 h) [mm] | Edema inhibition % ([1]; 6 h) [%] | Edema thickness (mm) ± SEM ([1]; 6 h) [mm] | inhibition at 32 µg/mL [2] [%] | inhibition at 32 µg/mL [3] [%] | inhibition at 32 µg/mL [4] [%] | inhibition at 32 µg/mL [5] [%] | Selectivity index (SI) (human recombinant COX-2) | inhibition at 32 µg/mL [6] [%]
9 | 10.6 | 210 to 212 | CS(=O)(=O)c1ccc(-c2[nH]c3ccccc3c2-c2nc3cc(Cl)ccc3[nH]2)cc1 [Compound 8a, 5-Chloro-2-(2-(4-(methylsulfonyl)phenyl)-1H-indol-3-yl)-1H-benzo[d]imidazole] | 52.5 | 1.246 ± 0.076 | 58 | 0.937 ± 0.046 | 56.4 | 0.826 ± 0.078 |  |  | 13.6 | 7.71 | 81.84 | 
10 | 11.2 | 217 to 219 | Cc1ccc2[nH]c(-c3ccc(S(C)(=O)=O)cc3)c(-c3nc4cc(Cl)ccc4[nH]3)c2c1 [Compound 8c, 5-Chloro-2-(5-methyl-2-(4-(methylsulfonyl)phenyl)-1H-indol-3-yl)-1H-benzo[d]imidazole] | 67.9 | 0.842 ± 0.062 | 71.9 | 0.627 ± 0.05 | 74.2 | 0.489 ± 0.032 |  |  | 4.62 | 1.65 | 93.58 | 
11 | 10.6 | 199 to 201 | CS(=O)(=O)c1ccc(-c2[nH]c3ccccc3c2C=NO)cc1 [Compound 9a, 2-(4-(Methylsulfonyl)phenyl)-1H-indole-3-carbaldehyde oxime] | 77.2 | 0.598 ± 0.050 | 61.8 | 0.852 ± 0.073 | 62.3 | 0.714 ± 0.052 | 2.49 | 42.1 |  | 9.15 | 81.84 | 14.8
12 | 8.24 | 212 to 214 | Cc1ccc2[nH]c(-c3ccc(S(C)(=O)=O)cc3)c(C=NO)c2c1 [Compound 9c, 5-Methyl-2-(4-(methylsulfonyl)phenyl)-1H-indole-3-carbaldehyde oxime] | 55.2 |  | 68.6 | 0.435 ± 0.033 | 61.7 | 0.504 ± 0.009 |  | 33.7 |  | 4.88 | 34.33 | 1.19

From PMC7106896, “Synthesis and biological evaluation of 2-(4-methylsulfonyl phenyl) indole derivatives: multi-target compounds with dual antimicrobial and anti-inflammatory activities” (BMC Chemistry, 2020)
